The source of these data is US7803788B2, “Prodrugs of phosphonate nucoleotide analogues” (Gilead Sciences, Inc., priority 2000, dated 2010).

pIC50: −log10 of the molar value. Where two headings read alike, the source gives them in different places. Where only a bound is given, the exact number is not on record here.

In data set [1] the test system is HIV-1. Briefly: In vitro anti-HIV-1 activity in MT-2 cells. The format is cell-based. Conditions: for Fold change: Table 4, IC50 relative to PMPA.
For data set [2] the following is noted: dogs, oral, 10 mg-equivalent of PMPA/kg. The procedure:
Formulations. The prodrugs were formulated as solutions in 50 mM citric acid within 0.5 hour prior to dose. All compounds used in the studies were synthesized by Gilead Sciences. The following lots were used:
Dose Administration and Sample Collection. The in-life phase of this study was conducted in accordance with the recommendations of the “Guide for the Care and Use of Laboratory Animals” (National Institutes of Health publication 86-23) and was approved by an Institutional Animal Care and Use Committee. Fasted male beagle dogs (10±2 kg) were used for the studies. Each drug was administered as a single dose by oral gavage (1.5-2 ml/kg). The dose was 10 mg-equivalent of PMPA/kg. […] Blood (1.0 ml) was processed immediately for plasma by centrifugation at 2,000 rpm for 10 min. Plasma samples were frozen and maintained at […] until analyzed.
Peripheral Blood Mononuclear Cell (PBMC) preparation. Whole blood (8 ml) drawn at specified time points was mixed in equal proportion with phosphate buffered saline (PBS), layered onto 15 ml of Ficoll-Paque solution (Pharmacia Biotech,) and centrifuged at 400×g for 40 min. PBMC layer was removed and washed once with PBS. Formed PMBC pellet was reconstituted in 0.5 ml of PBS, cells were resuspended, counted using hemocytometer and maintained at […] until analyzed. The number of cells multiplied by the mean single-cell volume was used in calculation of intracellular concentrations. […] Agents Chemother.
Determination of PMPA and Prodrugs in plasma and PBMCs. […] Derivatized samples were then evaporated to dryness and reconstituted in 100 μl of water for HPLC analysis.
Before intracellular PMPA could be determined by HPLC, the large amounts of adenine related ribonucleotides present in the PBMC extracts had to be removed by selective oxidation.
The mobile phases used were: A, 5% acetonitrile in 25 mM potassium phosphate buffer with 5 mM tetrabutyl ammonium bromide (TBABr), pH 6.0; B, 60% acetonitrile in 25 mM potassium phosphate buffer with 5 mM TBABr, pH 6.0. The flow rate was 2 ml/min and the column temperature was maintained at 35° C. by a column oven. […] Data was acquired and stored by a laboratory data acquisition system (PeakPro, Beckman, Allendale, N.J.).
Pharmacokinetic Calculations. […] The AUC values were calculated using the trapezoidal rule.

Data set [3] in a line: Stability / hydrolysis in MT-2 cell extract. As to conditions: for MT-2 extract hydrolysis product: 37° C., HEPES buffer pH 7.4. The class given is in vitro ADME. The protocol: (§1) The in vitro metabolism and stability of separated diastereomers were determined in PLCE, MT-2 extract and human plasma. A biological sample listed below, 80 μL, was transferred into a screw-capped centrifuge tube and incubated at 37° C. for 5 min. A solution containing 0.2 mg/mL of the test compound in a suitable buffer, 20 μL, was added to the biological sample and mixed. The reaction mixture, 20 μL, was immediately sampled and mixed with 60 μL of methanol containing 0.015 mg/mL of 2-hydroxymethylnaphthalene as an internal standard for HPLC analysis. The sample was taken as the time-zero sample. Then, at specific time points, the reaction mixture, 20 μL, was sampled and mixed with 60 μl of methanol containing the internal standard. The mixture thus obtained was centrifuged at 15,000 G for 5 min and the supernatant was analyzed with HPLC under the conditions described below.
(§2) The biological samples evaluated are as follows, • (1) PLCE (porcine liver carboxyesterase from Sigma, 160 u/mg protein, 21 mg protein/mL) diluted 20 fold with PBS (phosphated-buffered saline). • (2) MT-2 cell extract was prepared from MT-2 cells according to the published procedure [A. Pompon, I. Lefebvre, J.-L. Imbach, S. Kahn, and D. Farquhar, “Antiviral Chemistry & Chemotherapy”, 5:91-98 (1994)] except for using HEPES buffer described below as the medium. • (3) Human plasma (pooled normal human plasma from George King Biomedical Systems, Inc.)
In the study for MT-2 cell extracts, the test compound was dissolved in HEPES buffer. HEPES buffer contains 0.010 M HEPES, 0.05 M potassium chloride, 0.005 M magnesium chloride, and 0.005 M dl-dithiothreitol. pH 7.4 at 37° C.
(§3) The HPLC analysis was carried out under the following conditions.

The nature of data set [4]: PMPA metabolites in plasma, PBMCs and RBCs after 1 h incubation in human blood. The protocol:
After 1 hour, plasma, red blood cells (RBCs) and peripheral blood mononuclear cells (PBMCs) were isolated and analyzed by HPLC with radiometric detection.
Met. Lower case “p” designates phosphorylation.

Data set [5] relates to MT-2 cells. Nature of the data set: Cytotoxicity in MT-2 cells.
A short description of data set [6]: Excretion and tissue distribution of radiolabelled GS-7340 in dogs. As to conditions: dogs, oral 10 mg-eq. PMPA/kg. The procedure:
Plasma and peripheral blood mononuclear cells (PBMCs) were obtained over the 24-hr period. Urine and feces were cage collected over 24 hr. At 24 h after the dose, the animals were sacrificed and tissues removed for analysis. Total radioactivity in tissues was determined by oxidation and liquid scintillation counting.

Data set [7] can be described thus: Stability in human plasma. The class given is in vitro ADME. Conditions: for Human Plasma Stability (HP) product / Human Plasma Stability (HP) t1/2: 37° C., TBS pH 7.5. The protocol: as §1, §2
In the study for human plasma, the test compound was dissolved in TBS. TBS (tris-buffered saline, Sigma) contains 0.05 M Tris, 0.0027 M potassium chloride, and 0.138 M sodium chloride. pH 7.5 at 37° C.
as §3

For data set [8], the system named is PLCE (porcine liver carboxyesterase). Nature of the data set: PLCE hydrolysis. As to conditions: 37° C., PBS pH 7.4. The format is in vitro ADME. The procedure: as §1, §2
In the study for PLCE, the test compound was dissolved in PBS. PBS (phosphate-buffered saline, Sigma) contains 0.01 M phosphate, 0.0027 M potassium chloride, and 0.137 M sodium chloride. pH 7.4 at 37° C.
as §3

The mark [9] stands for this setting: Table 4, effect of diastereomer, read-out: IC50.
[10] abbreviates: Table 5 (selected IC50 data from Table 4), read-out: HIV IC50.

The term pIC50 denotes the IC50 on a negative log10 scale, so that one unit is a factor of ten. As to `CCOC(=O)C(C)NP(=O)(COC(C)Cn1cnc2c(N)ncnc21)Oc1ccccc1` (single isomer, unassigned) [GS-7114], in data set [1] (setting [9]), the negative-log IC50 (pIC50) is 8.30. Besides, the Fold change in data set [1] was 1,000x. Also, in data set [2], the “PBMC/Plasma Exposure Ratio” value came out at 122 and the “Prodrug in Plasma” value is “YES”.
For the compound `CCOC(=O)C(C)NP(=O)(COC(C)Cn1cnc2c(N)ncnc21)Oc1ccccc1` (single isomer, unassigned) [GS-7115], the negative-log IC50 (pIC50) in data set [1] (setting [9]) was 7.30. For the same compound, in data set [1], the Fold change is listed as 100x. In data set [2], the “PBMC/Plasma Exposure Ratio” value stood at 43 and the “Prodrug in Plasma” value is “YES”.
For orientation: CC50 means the concentration that lowers cell viability or growth by half. With `CC(C)OC(=O)[C@H](C)N[P@](=O)(CO[C@H](C)Cn1cnc2c(N)ncnc21)Oc1ccccc1` (single isomer, unassigned) [GS-7340], the “Stability T ½ MT-2 Cell Extract” value in data set [3] (MT-2 cell extract) came to 0.472 h. Further, the “Metabolites (% of Total Peak Area): GS 7340 (intact)” value in data set [4] (Plasma/FP) is 84%; in data set [4] (RBC/FP), 57%. Besides, the “Total C-14 Recovered” value in data set [4] (Plasma/FP, 60 μg-eq) was determined as 43.0 μg-eq. The 50% cytotoxic concentration (CC50) was at least 40000 nM in data set [5] (Table 4) and over 40000 nM in data set [5] (read-out: Cytotoxicity CC50, MT-2 cells, Table 1). Also, the “% Dose” value in data set [6] (Abdominal fat) is 0.00%; in data set [6] (Adrenal Gland), 0.00%; in data set [6] (Axillary Lymph Nodes), 0.01%; in data set [6] (Bile), 0.22%; in data set [6] (Bone Marrow), 0.00%; in data set [6] (Brain) it was 0.00%. Moreover, the “% Dose” value stood at 0.00% in data set [6] (Cerebrospinal Fluid); 0.44% in data set [6] (Duodenum); 0.00% in data set [6] (Eye (L + R)); 0.19% in data set [6] (Feces); 0.00% in data set [6] (Femoral Bone); 0.04% in data set [6] (Gall bladder). Further, the “% Dose” value in data set [6] (Heart) worked out at 0.15%; in data set [6] (Ileum), 0.16%; in data set [6] (Iliac Lymph Nodes), 0.01%; in data set [6] (Inguinal Lymph Nodes) it was 0.00%; in data set [6] (Jejunum), 0.79%; in data set [6] (Lungs) it was 0.34%. The “% Dose” value in data set [6] (Mesenteric Lymph Nodes) was 0.04%; in data set [6] (Pancreas), 0.01%; in data set [6] (Pituitary Gland), 0.00%; in data set [6] (Prostate), 0.00%; in data set [6] (Salivary Gland (L + R)), 0.03%; in data set [6] (Skeletal Muscle), 0.01%. Also, the “% Dose” value came out at 0.00% in data set [6] (Skin); 0.00% in data set [6] (Spinal Cord); 0.17% in data set [6] (Spleen); 0.26% in data set [6] (Stomach); 0.02% in data set [6] (Testes (L + R)); 0.00% in data set [6] (Thyroid Gland). Besides, the “% Dose” value in data set [6] (Whole Blood) was found to be 0.16%. For the same compound, the Conc. is on record as 0.90 ug-eq/g in data set [6] (Abdominal fat); “<LOD” in data set [6] (Brain); 0.00 ug-eq/g in data set [6] (Cerebrospinal Fluid); 0.23 ug-eq/g in data set [6] (Eye (L + R)); 0.28 ug-eq/g in data set [6] (Femoral Bone); 1.80 ug-eq/g in data set [6] (Pituitary Gland). The Conc. worked out at 0.95 ug-eq/g in data set [6] (Skin), 0.04 ug-eq/g in data set [6] (Spinal Cord) and 0.20 ug-eq/g in data set [6] (Whole Blood). For the same compound, the “Stability T ½ Human Plasma” value in data set [7] (human plasma) worked out at 1.5 h.
With `CCOC(=O)C(C)NP(=O)(COC(C)Cn1cnc2c(N)ncnc21)Oc1ccccc1` (single isomer, unassigned) [compound 1], in data set [3], the “MT-2 extract hydrolysis product” value is on record as “Met. X & PMPA”. In data set [1] (setting [10]), the negative logarithm of the IC50 (pIC50) is 8.30. Besides, in data set [7], the “Human Plasma Stability (HP) product” value is recorded as “Met. Y” and the “Human Plasma Stability (HP) t1/2” value was determined as 2.47 h. Besides, the PLCE hydrolysis product entry in data set [8] is listed as “Met. X & PMPA”.
As to `CCOC(=O)C(C)NP(=O)(COC(C)Cn1cnc2c(N)ncnc21)Oc1ccccc1` (single isomer, unassigned) [compound 2], the “MT-2 extract hydrolysis product” value in data set [3] is “Met. X & PMPA”. In data set [1] (setting [10]), the negative logarithm of the IC50 (pIC50) was 7.30. Further, in data set [7], the “Human Plasma Stability (HP) product” value is given as “Met. Y” and the “Human Plasma Stability (HP) t1/2” value was found to be 8.25 h. Also, the PLCE hydrolysis product entry in data set [8] is given as “Met. X & PMPA”.
Turning to `CCOC(=O)C(CC)NP(=O)(COC(C)Cn1cnc2c(N)ncnc21)Oc1ccccc1` (single isomer, unassigned) [compound 6], the pIC50 in data set [1] (setting [10]) is 7.52. Also, in data set [7], the “Human Plasma Stability (HP) product” value is reported as “Met. Y” and the “Human Plasma Stability (HP) t1/2” value was determined as 4.28 h. In addition, the PLCE hydrolysis product entry in data set [8] was “Met. X”.
